Test results from paper PMC9950431, “A bivalent remipede toxin promotes calcium release via ryanodine receptor activation” (Nature Communications, 2023).
No end group written: not given here.

Legend:
ryanodine receptor = molecular target: T1, ryanodine receptor (Oryctolagus cuniculus, UniProt P11716); experiment: Single channel recording, exposure to peptide (sheet "Supp Fig 11"; RyR isoform not given); assay type: biochemical; conditions: IpTxA; combined average 100pM, 1nM and 5nM; 7 listed values; sem 0.460531; t-test 3.72E-02; control = 1
T1 construct: skeletal SR vesicles were isolated from the back and leg muscles of mature female New Zealand white rabbits; from tissue; host or cells: rabbit back and leg skeletal muscle, sarcoplasmic reticulum vesicles
Description: Supplement 41467_2023_36579_MOESM6_ESM.xlsx, sheet "Supp Fig 11" | column: mean Tc; mean To; mean Po; rel Tc; rel To; rel Po

RyR1 [1] = molecular target: T2, RyR1 (Oryctolagus cuniculus, UniProt P11716); conditions: cited from earlier work
T2 construct: skeletal SR vesicles were isolated from the back and leg muscles of mature female New Zealand white rabbits; from tissue; host or cells: rabbit back and leg skeletal muscle, sarcoplasmic reticulum vesicles
Method: Electrophysiology experiments were carried out to determine the potency of each peptide. […] It is known that the activity of I ...

RyR1 [2] = molecular target: T2, RyR1; experiment: Single channel electrophysiology of RyR1 channels inserted into lipid bilayers (exposure to peptide); assay type: biochemical, New Zealand white rabbit (skeletal SR); conditions: +40 mV
Method: Cardiac SR was prepared from mature female crossbred sheep hearts, and skeletal SR vesicles were isolated from the back and leg muscles of mature female New Zealand white rabbits[29],[54] with approval from the ANU Animal Experiment Ethics Committee Protocol Number A2015/35. […] Solutions for vesicle incorporation contained (mM): cis 230 caesium methanesulfonate (CsMS); 20 CsCl; 1 CaCl2 and 10 […] (TES) pH 7.4 and trans 30 CsMS; 20 CsCl; 1 CaCl2 10 TES; pH 7.4. […] Following incorporation, 200 mM CsMS was added to the trans solution and the cis solution exchanged with recording solution containing (mM): 230 CsMS; 20 CsCl; 0.001 CaCl2;10 TES and pH 7.4, with [Ca^2+] set by a [BAPTA] determined using a Ca^2+ electrode. The cytoplasmic and luminal solutions contained 1 μM and 1 mM Ca^2+ respectively, with symmetrical 250/250 mM CsMS. Bilayer voltage was switched between +40 mV and −40 mV (cytoplasmic voltage relative to grounded luminal solution) every 30 s. The activity of the RyR channels used here included 1 µM Ca^2+ in the cytoplasmic solution and 1 mM Ca^2+ in the luminal solution[29],[55]. Electrophysiology experiments were analysed using Channel 2 (P.W. Gage, M. Smith, Australian National University) and Channel 3 (N.W. Laver, University of Newcastle, Australia) software, available from the authors upon request. Statistical analyses were performed using Microsoft Excel (Office 365). […] Following most incorporation events, a single channel only was active in the bilayer and channel open probability (Po), mean open time (To), mean closed time (Tc) and open event frequency (Fo) were measured. When 2–4 channels were active in a bilayer, PO was approximated from the fractional mean current (I’F), i.e., mean current divided by maximum current. I’F is equal to PO in a single channel and indicates the average PO of multiple channels in a bilayer. […] Experiments at UN also included a minority of multi-channel experiments. The bilayer rigs, solution composition, source of channels, data acquisition and analyses methods were all identical.
Statistical analysis of single channel data was performed using Excel spreadsheets and embedded Students t-test functions or a sign test as indicated in the graphs in Figs. 1 and 3.

[3] = tested on: sarcoplasmic reticulum (SR) in mouse extensor digitorum longus (EDL) fibers; experiment: SR Ca2+ leak in mechanically-skinned EDL muscle fibers (total SR Ca2+ content, [CaT]SR, after 1 min leak); assay type: cell-based, mouse (C57/Bl6)
Description: All experiments were approved by The University of Queensland Animal Ethics Committees. Male and female C57/Bl6 2–6-month-old mice were sacrificed by asphyxiation via CO2 exposure and the EDL muscles were rapidly excised. The EDL was pinned at resting length in a petri dish lined with Sylgard 184 (Dow Corning, Midland, MI) and immersed in paraffin oil (Ajax Chemicals, Sydney, Australia). Segments of individual fibers were mechanically skinned using jeweler’s forceps and pinned out unstretched under oil[37]–[39]. The skinned fiber was then mounted at 120% of resting length on a force transducer (Myotronic UG, Heidelberg, Germany) before transfer to a 2-ml Perspex bath containing standard K^+-based solution that broadly mimics the intracellular milieu. […] All chemicals were purchased from Sigma-Aldrich (St Louis, MO, USA) unless specified otherwise.
Variations of the standard solution were prepared. To deplete the caffeine releasable Ca^2+ (“full release solution”), 30 mM caffeine was added, [Mg^2+] was lowered to 0.05 mM (total Mg^2+ of 2.1 mM) and free EGTA was adjusted to 0.5 mM (pCa 8.5) to chelate released Ca^2+. To measure the maximum force produced by the skinned fiber, all HDTA was replaced by EGTA (relaxing solution) or CaEGTA (maximum Ca^2+ activating solution). The relaxing solution contained 50 mM EGTA and no added Ca^2+ (pCa > 9) and the maximum Ca^2+-activating solution contained 49.5 mM Ca^2+ (pCa 4.7), with total Mg^2+ of 10.3 and 8.1 mM, respectively, to maintain the free [Mg^2+] at 1 mM. A “leak solution” was also prepared, where [Mg^2+] set at 0.1 mM (total Mg^2+ of 3.4 mM) to increase the PO of RyR and with 2 mM EGTA (pCa ~8.5) to chelate leaky Ca^2+ from the SR. […] The BAPTA solution used to pre-equilibrate fibers before lysing was similar to the standard K-HDTA solution but EGTA was replaced with 0.1–1.6 mM BAPTA[37],[39].
The skinned fiber was then equilibrated for 20 s in a solution with a set [BAPTA] before being placed in a freshly triturated emulsion of Triton X-100 in paraffin oil (TX–oil) (10% v/v). The Ca^2+ released upon the membrane lysing rapidly binds to the known amount of BAPTA present within the fiber and to other sites, predominantly troponin C (TnC). The pre-equilibrating [BAPTA] was chosen such that the fiber produced a finite, non-maximal force response upon lysis. Pre-treatment of the fiber with “full release solution” allowed the non-SR Ca^2+ content of the skinned fiber to be assayed. The total amount of Ca^2+ present in the fiber could be calculated from the [BAPTA] in the equilibration solution and the magnitude of the force response. Data are presented as mean ± SD, with n denoting the number of fibers examined. Statistical significance (p < 0.05) was determined with One-way ANOVA.

RyR1 [4] = tested on: RyR1; set-up: method as in PMID 21323602; conditions: cited from earlier work
RyR2 = tested on: RyR2; set-up: method as in PMID 21323602; conditions: cited from earlier work
TRPV1 = conditions: cited from earlier work

T2 sequence (P11716 whole entry): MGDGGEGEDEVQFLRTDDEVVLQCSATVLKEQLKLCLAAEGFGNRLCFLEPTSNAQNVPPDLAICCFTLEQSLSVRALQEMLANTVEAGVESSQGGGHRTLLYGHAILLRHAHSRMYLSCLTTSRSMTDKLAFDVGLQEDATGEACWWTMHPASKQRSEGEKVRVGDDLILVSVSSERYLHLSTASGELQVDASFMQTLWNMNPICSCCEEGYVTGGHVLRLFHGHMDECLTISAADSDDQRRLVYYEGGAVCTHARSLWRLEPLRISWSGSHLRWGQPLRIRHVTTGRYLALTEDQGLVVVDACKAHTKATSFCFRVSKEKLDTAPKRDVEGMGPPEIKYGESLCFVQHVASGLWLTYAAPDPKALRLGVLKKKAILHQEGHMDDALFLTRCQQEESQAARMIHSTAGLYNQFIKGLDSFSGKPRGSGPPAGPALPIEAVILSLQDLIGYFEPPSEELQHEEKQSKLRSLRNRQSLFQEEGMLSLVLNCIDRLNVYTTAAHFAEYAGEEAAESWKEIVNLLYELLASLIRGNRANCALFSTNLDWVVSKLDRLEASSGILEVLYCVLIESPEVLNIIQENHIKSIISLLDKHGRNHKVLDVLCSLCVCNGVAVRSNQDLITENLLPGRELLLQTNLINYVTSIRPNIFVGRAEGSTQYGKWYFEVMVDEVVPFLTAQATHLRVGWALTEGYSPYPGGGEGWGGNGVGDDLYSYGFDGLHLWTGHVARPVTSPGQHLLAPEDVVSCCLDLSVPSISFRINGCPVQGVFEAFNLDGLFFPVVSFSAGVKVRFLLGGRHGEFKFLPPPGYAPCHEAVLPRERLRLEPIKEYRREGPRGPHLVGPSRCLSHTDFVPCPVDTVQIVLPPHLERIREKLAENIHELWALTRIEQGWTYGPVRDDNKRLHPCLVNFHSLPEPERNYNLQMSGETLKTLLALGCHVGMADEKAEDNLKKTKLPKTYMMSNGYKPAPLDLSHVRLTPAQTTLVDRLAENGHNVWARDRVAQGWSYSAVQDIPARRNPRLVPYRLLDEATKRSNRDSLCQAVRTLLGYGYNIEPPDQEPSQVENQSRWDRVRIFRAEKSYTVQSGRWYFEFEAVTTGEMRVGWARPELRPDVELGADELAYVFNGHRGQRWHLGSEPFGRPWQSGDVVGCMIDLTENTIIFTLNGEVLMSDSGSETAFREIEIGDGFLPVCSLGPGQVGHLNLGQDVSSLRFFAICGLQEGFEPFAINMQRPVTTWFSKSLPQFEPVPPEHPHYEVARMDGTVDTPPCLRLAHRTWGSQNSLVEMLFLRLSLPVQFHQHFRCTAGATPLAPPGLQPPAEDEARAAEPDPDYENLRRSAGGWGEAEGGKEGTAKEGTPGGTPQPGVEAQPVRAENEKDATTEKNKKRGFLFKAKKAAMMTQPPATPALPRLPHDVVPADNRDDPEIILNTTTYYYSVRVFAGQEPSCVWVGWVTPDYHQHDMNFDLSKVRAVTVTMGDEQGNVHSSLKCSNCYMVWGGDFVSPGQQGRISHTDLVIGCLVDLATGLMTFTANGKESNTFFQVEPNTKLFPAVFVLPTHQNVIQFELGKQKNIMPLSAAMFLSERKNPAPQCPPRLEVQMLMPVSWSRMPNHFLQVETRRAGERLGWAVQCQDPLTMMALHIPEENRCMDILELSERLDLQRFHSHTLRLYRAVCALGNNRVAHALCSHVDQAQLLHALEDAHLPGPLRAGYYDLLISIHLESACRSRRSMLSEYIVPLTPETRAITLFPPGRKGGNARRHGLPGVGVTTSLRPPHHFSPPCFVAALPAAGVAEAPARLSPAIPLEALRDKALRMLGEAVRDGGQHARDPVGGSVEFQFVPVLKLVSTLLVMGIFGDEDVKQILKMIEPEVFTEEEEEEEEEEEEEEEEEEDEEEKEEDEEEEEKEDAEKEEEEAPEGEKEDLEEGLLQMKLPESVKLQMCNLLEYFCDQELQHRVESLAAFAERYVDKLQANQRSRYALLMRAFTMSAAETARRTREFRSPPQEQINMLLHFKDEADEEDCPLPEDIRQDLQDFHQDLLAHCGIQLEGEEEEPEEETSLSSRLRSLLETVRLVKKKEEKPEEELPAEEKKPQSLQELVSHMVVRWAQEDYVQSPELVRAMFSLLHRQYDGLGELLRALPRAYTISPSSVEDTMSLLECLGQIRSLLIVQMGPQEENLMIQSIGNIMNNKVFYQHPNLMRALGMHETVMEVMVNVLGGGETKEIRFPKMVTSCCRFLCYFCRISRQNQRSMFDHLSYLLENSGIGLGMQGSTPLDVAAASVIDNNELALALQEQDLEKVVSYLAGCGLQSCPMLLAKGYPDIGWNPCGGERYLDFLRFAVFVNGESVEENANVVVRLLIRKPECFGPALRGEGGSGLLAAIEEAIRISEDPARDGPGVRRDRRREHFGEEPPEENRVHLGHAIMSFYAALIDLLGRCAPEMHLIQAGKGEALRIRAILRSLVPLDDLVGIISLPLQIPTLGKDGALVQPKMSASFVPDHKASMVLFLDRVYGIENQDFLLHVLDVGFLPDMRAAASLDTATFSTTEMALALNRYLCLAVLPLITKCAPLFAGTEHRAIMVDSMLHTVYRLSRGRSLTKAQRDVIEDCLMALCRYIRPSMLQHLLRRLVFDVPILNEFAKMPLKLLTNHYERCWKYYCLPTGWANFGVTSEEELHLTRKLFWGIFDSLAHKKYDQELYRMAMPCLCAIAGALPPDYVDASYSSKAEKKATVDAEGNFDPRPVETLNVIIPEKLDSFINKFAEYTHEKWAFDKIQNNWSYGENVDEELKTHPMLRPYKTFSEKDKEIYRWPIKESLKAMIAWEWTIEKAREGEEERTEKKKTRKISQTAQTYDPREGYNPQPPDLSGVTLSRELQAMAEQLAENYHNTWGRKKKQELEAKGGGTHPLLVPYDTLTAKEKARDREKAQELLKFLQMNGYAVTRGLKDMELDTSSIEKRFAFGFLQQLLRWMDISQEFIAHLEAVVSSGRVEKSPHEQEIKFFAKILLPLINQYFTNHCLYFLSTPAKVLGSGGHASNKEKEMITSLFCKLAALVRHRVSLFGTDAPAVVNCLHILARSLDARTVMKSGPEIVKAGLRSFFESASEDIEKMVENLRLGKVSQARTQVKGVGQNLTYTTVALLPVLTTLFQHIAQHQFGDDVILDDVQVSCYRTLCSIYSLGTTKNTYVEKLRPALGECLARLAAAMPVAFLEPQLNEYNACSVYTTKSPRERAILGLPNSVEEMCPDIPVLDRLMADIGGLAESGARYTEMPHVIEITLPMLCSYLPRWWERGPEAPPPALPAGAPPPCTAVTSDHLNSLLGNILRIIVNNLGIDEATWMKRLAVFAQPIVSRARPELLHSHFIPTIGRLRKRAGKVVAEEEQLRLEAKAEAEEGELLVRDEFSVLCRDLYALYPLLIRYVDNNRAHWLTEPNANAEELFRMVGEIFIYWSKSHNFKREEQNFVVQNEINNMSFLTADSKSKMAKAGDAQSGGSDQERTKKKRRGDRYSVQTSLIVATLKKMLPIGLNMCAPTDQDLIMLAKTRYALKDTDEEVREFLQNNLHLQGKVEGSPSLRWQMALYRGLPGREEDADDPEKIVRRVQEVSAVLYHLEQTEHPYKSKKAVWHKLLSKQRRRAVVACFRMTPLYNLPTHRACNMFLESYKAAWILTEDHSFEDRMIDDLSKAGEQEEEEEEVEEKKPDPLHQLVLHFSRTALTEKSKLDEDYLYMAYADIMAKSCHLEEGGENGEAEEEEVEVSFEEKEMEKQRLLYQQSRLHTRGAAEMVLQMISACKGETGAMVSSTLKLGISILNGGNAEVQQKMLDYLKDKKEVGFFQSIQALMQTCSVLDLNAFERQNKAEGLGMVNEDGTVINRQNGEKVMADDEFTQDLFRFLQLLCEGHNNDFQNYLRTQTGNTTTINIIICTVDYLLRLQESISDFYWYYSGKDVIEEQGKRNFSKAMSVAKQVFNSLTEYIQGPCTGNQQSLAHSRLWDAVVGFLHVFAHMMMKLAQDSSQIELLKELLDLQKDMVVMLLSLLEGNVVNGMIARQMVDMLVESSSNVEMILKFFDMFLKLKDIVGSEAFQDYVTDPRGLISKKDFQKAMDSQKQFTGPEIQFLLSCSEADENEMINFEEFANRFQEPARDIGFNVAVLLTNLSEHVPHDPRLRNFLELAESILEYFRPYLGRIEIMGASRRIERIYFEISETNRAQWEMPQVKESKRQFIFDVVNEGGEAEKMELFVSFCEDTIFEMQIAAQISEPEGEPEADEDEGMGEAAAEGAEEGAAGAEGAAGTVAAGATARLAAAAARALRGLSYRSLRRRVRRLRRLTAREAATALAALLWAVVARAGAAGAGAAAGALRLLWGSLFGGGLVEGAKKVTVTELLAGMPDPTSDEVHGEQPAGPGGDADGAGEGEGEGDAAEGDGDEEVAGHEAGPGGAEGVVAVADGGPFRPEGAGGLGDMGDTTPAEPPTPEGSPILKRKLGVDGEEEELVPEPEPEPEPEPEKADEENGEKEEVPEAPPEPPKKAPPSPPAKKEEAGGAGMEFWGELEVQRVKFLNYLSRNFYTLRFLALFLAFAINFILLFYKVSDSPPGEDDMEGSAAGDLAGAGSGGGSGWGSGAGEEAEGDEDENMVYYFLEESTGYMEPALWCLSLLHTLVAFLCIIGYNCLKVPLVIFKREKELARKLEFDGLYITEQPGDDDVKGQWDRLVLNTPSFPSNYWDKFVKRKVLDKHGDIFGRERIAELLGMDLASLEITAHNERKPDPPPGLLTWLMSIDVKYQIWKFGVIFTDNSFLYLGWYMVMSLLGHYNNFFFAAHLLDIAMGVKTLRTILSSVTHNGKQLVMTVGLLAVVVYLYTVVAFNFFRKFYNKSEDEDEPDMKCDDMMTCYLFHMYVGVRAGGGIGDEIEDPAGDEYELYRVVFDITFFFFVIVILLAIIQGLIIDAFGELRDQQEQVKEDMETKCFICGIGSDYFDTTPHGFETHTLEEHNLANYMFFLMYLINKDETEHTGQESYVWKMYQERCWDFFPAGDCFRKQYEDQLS
T1 sequence (P11716 whole entry, canonical isoform): as the sequence (P11716 whole entry) above

## imperatoxin-A (GDCLPHLKRCKADNDCCGKKCKRRGTNAEKRCR; not fully specified; ends and bridges not checked; UniProt P59868 1-33, looked up) [IpTxA, member of the calcin family of scorpion derived ICK toxins, recombinant (SUMO fusion), reference compound]
Ryanodine receptor
  mean rel Po: 1.9
RyR1 [1]
  reversibility of activity: reversible
RyR1 [2]; 0.1 nM n=2, 1 nM n=3, 10 nM n=2 grouped (n=7, P=3.7E-02)
  activation of RyR1: show activation withn a similar range
RyR1 [2]; isolated domains and IpTxA
  activation of RyR1 channels: potent (pM to nM) activation of RyR1 channels
[3]; 10 nM
  efficiency to increase SR Ca2+ leakage (order): Xt3a > Xt3a-D1 ~ IpTxA > Xt3a-D2
[3]; 10 nM peptide in leak solution, 1 min leak, mean ± SD, control leak 18 ± 7%
  depletion of [CaT]SR: 55 ± 18%
[3]; 10 nM peptide, 1 min leak, relative to Pre, fiber 2 of column
  Relative amount of total Ca2+ left in the SR ([CaT]SR): 17.9
[3]; 10 nM peptide, 1 min leak, relative to Pre, fiber 3 of column
  Relative amount of total Ca2+ left in the SR ([CaT]SR): 33.5
[3]; 10 nM peptide, 1 min leak, relative to Pre, fiber 4 of column
  Relative amount of total Ca2+ left in the SR ([CaT]SR): 46.4
[3]; 10 nM peptide, 1 min leak, relative to Pre, fiber 5 of column
  Relative amount of total Ca2+ left in the SR ([CaT]SR): 44.7
[3]; 10 nM peptide, 1 min leak, relative to Pre, fiber 6 of column
  Relative amount of total Ca2+ left in the SR ([CaT]SR): 44.3
[3]; 10 nM peptide, 1 min leak, relative to Pre, fiber 7 of column
  Relative amount of total Ca2+ left in the SR ([CaT]SR): 51.6
[3]; 10 nM peptide, 1 min leak, relative to Pre, fiber 8 of column
  Relative amount of total Ca2+ left in the SR ([CaT]SR): 48.5
[3]; 10 nM peptide, 1 min leak, relative to Pre, fiber 9 of column
  Relative amount of total Ca2+ left in the SR ([CaT]SR): 70.6
[3]; 10 nM peptide, 1 min leak, relative to Pre, fiber 10 of column
  Relative amount of total Ca2+ left in the SR ([CaT]SR): 71.5
[3]; 10 nM peptide, 1 min leak, relative to Pre, mean (n = 13 Xt3a, n = 10 others)
  Relative amount of total Ca2+ left in the SR ([CaT]SR), mean: 44.8
[3]; 10 nM peptide, 1 min leak, relative to [CaT]SR before the leak (Pre), fiber 1 of column
  Relative amount of total Ca2+ left in the SR ([CaT]SR): 19.4

B1: GSTm2: glutathione transferase reported to modulate RyR1 and RyR2 (protein, UniProt P28161 1-218, looked up)
Glutathione S-transferase Mu 2: MPMTLGYWNIRGLAHSIRLLLEYTDSSYEEKKYTMGDAPDYDRSQWLNEKFKLGLDFPNLPYLIDGTHKITQSNAILRYIARKHNLCGESEKEQIREDILENQFMDSRMQLAKLCYDPDFEKLKPEYLQALPEMLKLYSQFLGKQPWFLGDKITFVDFIAYDVLERNQVFEPSCLDAFPNLKDFISRFEGLEKISAYMKSSRFLPRPVFTKMAVWGNK
RyR1 [4]
  effect on RyR1 activity: slightly increases the activity of RyR1
RyR2
  effect on RyR2 activity: strongly inhibits RyR2

B2: DkTx: double-knot spider toxin with tandem repeat ICK structure, TRPV1 (peptide, UniProt P0CH43 1-79, looked up)
Tau-theraphotoxin-Hs1a: DCAKEGEVCSWGKKCCDLDNFYCPMEFIPHCKKYKPYVPVTTNCAKEGEVCGWGSKCCHGLDCPLAFIPYCEKYRGRND
TRPV1
  avidity on washout: high avidity, evidenced by persistent activity during washout
